In article PMC9068870, “Modulation of Morphine Analgesia, Antinociceptive Tolerance, and Mu-Opioid Receptor Binding by the Cannabinoid CB2 Receptor Agonist O-1966” (Frontiers in Pharmacology, 2022):

Columns and labels:
[1] = target: T1, rat mu-opioid receptor (rMOR) (Rattus norvegicus, UniProt P33535); assay: competition with [3H]DAMGO, filtration, CHO-rMOR membranes; type: binding
T1 construct: gene Oprm1; stably expressed in CHO cells (CHO-rMOR); cell membranes

[2] = target: T1, rat mu-opioid receptor (rMOR); assay: […]GTPγS binding, CHO-rMOR membranes; type: biochemical; settings: O-1966 10 min before 0.5 µM morphine; 10 µM GDP, 50 mM HEPES, 100 mM NaCl, 5 mM MgCl2, 30 °C, 1 h; negative allosteric mode suggested only

T1 sequence (P33535 whole entry): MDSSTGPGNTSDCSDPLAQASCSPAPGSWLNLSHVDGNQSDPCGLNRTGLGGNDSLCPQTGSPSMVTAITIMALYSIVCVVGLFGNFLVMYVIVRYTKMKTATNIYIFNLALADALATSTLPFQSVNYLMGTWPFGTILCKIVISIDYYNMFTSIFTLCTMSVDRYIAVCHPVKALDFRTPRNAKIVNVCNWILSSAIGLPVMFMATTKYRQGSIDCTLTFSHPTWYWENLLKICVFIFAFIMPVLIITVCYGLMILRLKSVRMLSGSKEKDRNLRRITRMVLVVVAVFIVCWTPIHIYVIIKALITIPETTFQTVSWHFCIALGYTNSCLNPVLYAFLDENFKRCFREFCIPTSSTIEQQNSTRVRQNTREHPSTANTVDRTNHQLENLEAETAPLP

Question: With `CCCCCCC(C)(C)c1cc(OC)c(C2(O)CCCC(C)C2)c(OC)c1` (centres unmarked) [O-1966] as the compound, how does the Ki [1] read?
Answer: 3.04 µM

Question: And the “% reduction of morphine response at 10 μM” value [2]?
Answer: 20%
